# Source: ChEMBL document CHEMBL1201862, “PubChem BioAssay data set” (2004)
# Calls of active or inactive are those of the source. No stated cut-off is given here; in the data, actives have a measured IC50 and inactives only a lower limit.
# Target: Envelope glycoprotein gp160 (Human immunodeficiency virus 1, UniProt Q6QLK5)
# Assay: inhibitors of HIV fusion peptide binding, primary screen, biochemical, uHTS, fluorescence dequenching (AID 1986)
# Sequence of Envelope glycoprotein gp160 (Q6QLK5 whole entry, the tested form may be a part): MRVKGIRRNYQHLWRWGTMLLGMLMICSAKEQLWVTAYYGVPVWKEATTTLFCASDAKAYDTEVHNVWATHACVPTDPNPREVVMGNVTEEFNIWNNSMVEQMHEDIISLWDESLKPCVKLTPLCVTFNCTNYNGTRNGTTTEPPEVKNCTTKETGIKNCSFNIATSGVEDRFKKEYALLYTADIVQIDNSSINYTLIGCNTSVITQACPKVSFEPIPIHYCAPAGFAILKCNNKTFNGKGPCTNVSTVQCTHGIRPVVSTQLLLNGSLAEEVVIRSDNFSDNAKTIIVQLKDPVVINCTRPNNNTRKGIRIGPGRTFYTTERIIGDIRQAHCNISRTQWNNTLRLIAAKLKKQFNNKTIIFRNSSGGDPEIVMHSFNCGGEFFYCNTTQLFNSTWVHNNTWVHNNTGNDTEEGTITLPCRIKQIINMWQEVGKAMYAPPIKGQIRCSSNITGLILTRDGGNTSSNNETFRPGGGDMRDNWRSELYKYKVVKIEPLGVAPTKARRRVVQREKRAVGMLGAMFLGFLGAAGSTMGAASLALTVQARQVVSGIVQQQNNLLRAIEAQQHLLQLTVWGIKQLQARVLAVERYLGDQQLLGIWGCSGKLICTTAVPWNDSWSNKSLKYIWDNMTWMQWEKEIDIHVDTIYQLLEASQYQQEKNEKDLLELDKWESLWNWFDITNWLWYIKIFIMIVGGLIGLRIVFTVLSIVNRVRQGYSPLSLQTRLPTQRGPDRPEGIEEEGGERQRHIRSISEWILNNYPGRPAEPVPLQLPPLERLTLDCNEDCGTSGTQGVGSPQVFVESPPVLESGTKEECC
row,Compound,IC50
1,O=C(NCc1ccccc1)c1ccc2c(=O)[nH]c3c(C(=O)NCC4CCCO4)sc(=S)n3c2c1 (stereo not drawn),24.5 µM (active)
2,O=C(O)C1Nc2c(O)cccc2C2C=CCC12 (stereo not drawn),9.86 µM (active)
3,O=C(CN1C(=O)S/C(=C\C=C\c2ccccc2)C1=O)Nc1ccccc1C(=O)O,21.1 µM (active)
